Columns and labels:
[1] = system: CEM cells; assay: Cell uptake procedure (intracellular nucleotide levels by HPLC); format: cell-based, Human; conditions: 24 hour incubation, limit of detection about 5 pmol/10^6 cells
Experimental: CEM cells were resuspended in RPMI at 1×10^7 cells/mL. The appropriate amount of each compound was added to well and then 0.5 ml of the cells was aliquoted into the appropriate number of wells of a 24-well plate and incubated the cells at 37° C. Cells were harvested after 24 hours of incubation. To harvest cells they were transferred to a microfuge tube and spun for one minute at high speed. The samples were washed in PBS containing 1 mg/ml BSA and re-centrifuged. The PBS was then aspirated and 200 μL of ice-cold 60% methanol was added to extract the nucleotides. The extracts were incubated overnight at −20° C. The next day the samples were spun at high speed in a microfuge for 20 minutes and the supernatant transferred to clean tubes and dried in the speed vac. After drying the samples were resuspended in 50 μl, filtered, and the samples then directly injected onto the HPLC. The nucleotides were analyzed using reverse phase HPLC with ion-pairing agents for separation of the nucleotides. The procedure was adapted from the following paper: Furman, et al., Proc. Natl. Acad. Sci. USA 1986, 83, 8333-8337.
The limit of detection was estimated to be 5 pmol/10^6 cells.

[2] = in vitro; conditions: human, pH 7.4
[3] = molecular target: T1, HIV Reverse Transcriptase (Type B, 66 kDa subunit) (Human immunodeficiency virus type 1 group M subtype B, UniProt P04585); assay: HIV Reverse Transcriptase inhibition assays (RNA-directed DNA polymerization, PicoGreen fluorescence); format: biochemical; conditions: Table 1; template (homopolymer or heteropolymer RNA) not stated; read-out: Ki, Inhibition of HIV Reverse Transcriptase by Nucleotide Mimics
T1 construct: purified HIV Reverse Transcriptase (Type B, 66 kDa subunit)
Experimental: The assays employed to measure inhibition of HIV Reverse Transcriptase (HIV RT) catalyzed/RNA-directed DNA polymerization are described below. The effectiveness of the compounds of the present invention as inhibitors of HIV RT-catalyzed DNA polymerization was measured in the following assays.
This assay was used to measure the ability of the nucleotide mimics of the present invention to inhibit the enzymatic synthesis of complementary strand DNA from a DNA-primed template of homopolymeric RNA. This assay is a modification of a published procedure (Seville, et al., “Fluorometric Assay for DNA Polymerases and Reverse Transcriptase”, BioTechniques 1996, 21, 664-72).
The compounds were tested at various concentrations up to 500 μM final concentration. DNA polymerase activity was measured in a reaction buffer containing primed-RNA template and dTTP diluted to appropriate concentrations in assay buffer. Nucleotide mimics of the present invention were diluted in buffer and pipetted into the wells of a 96-well plate. The reaction was initiated by addition of enzyme and allowed to proceed at 37° C. for 10 minutes. The reaction was quenched by addition of 5 μL 0.2 M EDTA, pH 8.0.
200 μL of diluted PicoGreen dsDNA Quantitation Reagent (Molecular Probes, Inc, Eugene, Oreg.) was added to each well of a 96-well plate and incubated at room temperature for 5 minutes. Plate wells were read on a microplate fluorometer (Molecular Devices Corp., Sunnyvale, Calif.). The wells were excited at 480 nm and the fluorescence emission intensity (RFU) was measured at 520 nm. The percentage of inhibition was calculated according to the following equation:
% Inhibition=[1−(RFU in test reaction−RFU in blank)/(RFU in control reaction−RFU in blank)]×100.
Each inhibitor was titrated over an appropriate range of concentrations, and inhibition constants were determined using the following equations:
v=Vm[S]/(Km(1+[I]/Ki)+[S])
Certain compounds of the present invention were also tested to determine their ability to inhibit HIV RT-catalyzed DNA polymerization on a heteropolymeric primed-RNA template in the presence of all four natural deoxynucleotide triphosphate (dNTP) substrates. This assay is a modification of a published procedure (Parker et al., “Mechanism of Inhibition of Human Immunodeficiency Virus Type 1 Reverse Transcriptase and Human DNA Polymerases α, β, and γ by the 5′-Triphosphates of Carbovir,3′-Azido-3′-deoxythymidine,2′-3′-Dideoxyguanosine, and 3′-Deoxythymidine”, J. Biol. Chem. 1991, 266 (3), 1754-62).
HIV RT DNA polymerase activity was measured in a reaction buffer containing primed-ribosomal RNA template and dNTPs diluted to appropriate concentrations in assay buffer and pipetted into 1.5 mL microcentrifuge tubes. Nucleotide mimics of the present invention were diluted in buffer and tested at various concentrations up to 5 μM final concentration. The reaction was initiated by addition of enzyme and allowed to proceed at 42° C. for 60 to 90 minutes. The reaction was quenched by addition of 12 μL 0.2 M EDTA, pH 8.0.
50 μL each of reaction was transferred to the well of a 96-well plate (in duplicate). 200 μL of diluted PicoGreen dsDNA Quantitation Reagent was added to each well of a 96-well plate and incubated at room temperature for 5 minutes. Plate wells were read on a microplate fluorometer. The wells were excited at 480 nm and the fluorescence emission intensity (RFU) was measured at 520 nm. The percentage of inhibition and inhibition constants […] were determined for representative compounds as described above.

[BH3-][P+](O)(OCC1OC(n2cc(C)c(=O)[nH]c2=O)CC1N=[N+]=[N-])OP(=O)(O)C(F)(F)P(=O)(O)O (single isomer, unassigned) [Compound 27-isomer 1, 3′-Azido-3′-deoxythymidine 5′-α-P-borano-β,γ-(difluoromethylene)triphosphate]
Intracellular levels of 27 ([1]; incubation concentration 25 μM): BLD | Intracellular levels of 27 ([1]; incubation concentration 50 μM): 5.6 pmol/10^6 cells | Intracellular levels of 27 ([1]; incubation concentration 100 μM): 10.6 pmol/10^6 cells | half-life at 500 μM [2]: > 48 h | Ki [3]: 8 nM
